According to article PMC6572064, “Discovery of 2-(1-(3-(4-Chloroxyphenyl)-3-oxo- propyl)pyrrolidine-3-yl)-1H-benzo[d]imidazole-4-carboxamide: A Potent Poly(ADP-ribose) Polymerase (PARP) Inhibitor for Treatment of Cancer” (Molecules, 2019):
Like-named read-outs stand apart in the source and are kept apart here.

Key:
[1] = biological target: T1, PARP-2 (Homo sapiens, UniProt Q9UGN5); test: PARP-2 inhibition assay (PARP-2 Chemiluminescent Assay Kit, BPS Bioscience); type: biochemical
T1 construct: purchased BPS Bioscience 80552
T1 sequence (Q9UGN5 whole entry): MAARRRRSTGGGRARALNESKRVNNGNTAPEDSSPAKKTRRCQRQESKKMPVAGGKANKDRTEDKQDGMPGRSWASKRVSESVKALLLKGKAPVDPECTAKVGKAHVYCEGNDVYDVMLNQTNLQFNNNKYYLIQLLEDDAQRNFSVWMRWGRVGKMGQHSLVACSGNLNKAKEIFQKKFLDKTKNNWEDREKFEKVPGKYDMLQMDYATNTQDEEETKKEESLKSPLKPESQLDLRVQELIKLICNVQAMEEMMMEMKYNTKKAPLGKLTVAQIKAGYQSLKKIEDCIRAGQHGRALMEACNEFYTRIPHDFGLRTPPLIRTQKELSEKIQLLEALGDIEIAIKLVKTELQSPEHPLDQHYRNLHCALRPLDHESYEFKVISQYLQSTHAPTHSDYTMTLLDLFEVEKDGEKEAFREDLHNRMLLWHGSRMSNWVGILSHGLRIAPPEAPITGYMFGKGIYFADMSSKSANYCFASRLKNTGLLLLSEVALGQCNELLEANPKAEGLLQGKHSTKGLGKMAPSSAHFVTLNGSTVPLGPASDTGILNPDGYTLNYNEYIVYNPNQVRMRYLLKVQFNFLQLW
Protocol: (§1) The PARP-1 and PARP-2 inhibition assays were performed in outsourcing, by a CRO company, Shanghai Medicilon Inc. (Shanghai, China). […] Briefly, PARP-1 or PARP-2 biotinylated substrate was incubated with compounds or solvent control at varying concentrations and an assay buffer containing the PARP-1 or PARP-2 enzyme.

[2] = biological target: T2, PARP-1 (Homo sapiens, UniProt P09874); test: PARP-1 inhibition assay (PARP-1 Chemiluminescent Assay Kit, BPS Bioscience); type: biochemical
T2 construct: purchased BPS Bioscience 80569
T2 sequence (P09874 whole entry): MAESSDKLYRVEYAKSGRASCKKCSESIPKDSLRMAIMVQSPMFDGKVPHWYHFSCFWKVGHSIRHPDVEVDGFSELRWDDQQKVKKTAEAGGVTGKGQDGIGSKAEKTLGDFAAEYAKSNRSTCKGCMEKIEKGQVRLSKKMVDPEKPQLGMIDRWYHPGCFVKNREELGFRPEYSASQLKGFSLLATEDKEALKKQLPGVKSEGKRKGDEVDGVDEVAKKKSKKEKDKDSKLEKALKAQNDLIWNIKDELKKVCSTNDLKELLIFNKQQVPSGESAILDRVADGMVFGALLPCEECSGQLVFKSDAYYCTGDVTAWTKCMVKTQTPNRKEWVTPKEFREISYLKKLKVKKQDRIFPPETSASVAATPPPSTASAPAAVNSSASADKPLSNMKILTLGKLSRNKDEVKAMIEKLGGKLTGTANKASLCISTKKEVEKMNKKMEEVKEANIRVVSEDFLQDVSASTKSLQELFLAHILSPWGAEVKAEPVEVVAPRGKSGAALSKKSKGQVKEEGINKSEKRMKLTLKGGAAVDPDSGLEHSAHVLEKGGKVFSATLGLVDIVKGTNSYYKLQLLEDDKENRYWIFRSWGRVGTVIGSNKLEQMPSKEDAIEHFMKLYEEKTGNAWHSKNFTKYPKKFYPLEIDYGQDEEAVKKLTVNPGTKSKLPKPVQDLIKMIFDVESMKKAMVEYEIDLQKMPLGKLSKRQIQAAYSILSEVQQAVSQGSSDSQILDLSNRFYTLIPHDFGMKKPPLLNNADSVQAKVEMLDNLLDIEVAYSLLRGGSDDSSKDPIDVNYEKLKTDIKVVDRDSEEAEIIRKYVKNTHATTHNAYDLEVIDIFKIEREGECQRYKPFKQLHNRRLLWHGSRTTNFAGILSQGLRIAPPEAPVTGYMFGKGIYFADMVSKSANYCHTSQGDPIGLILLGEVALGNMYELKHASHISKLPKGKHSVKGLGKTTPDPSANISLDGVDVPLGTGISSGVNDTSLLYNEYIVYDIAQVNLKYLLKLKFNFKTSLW
Protocol: as §1

[3] = tested on: MDA-MB-436 (a BRCA-1-mutated breast cancer cell line); test: Cell proliferation assay, three-day, CellTiter-Glo, MDA-MB-436; type: cell-based; conditions: Homo sapiens; for inhibition at 0.00508 µM: MDA-MB-436, MDA-MB-436, Conc. 0.00508 uM; for inhibition at 0.0152 µM: MDA-MB-436, MDA-MB-436, Conc. 0.0152 uM; for inhibition at 0.0457 µM: MDA-MB-436, MDA-MB-436, Conc. 0.0457 uM; for inhibition at 0.41 µM: MDA-MB-436, MDA-MB-436, Conc. 0.41 uM; for inhibition at 1.23 µM: MDA-MB-436, MDA-MB-436, Conc. 1.23 uM; for inhibition at 3.7 µM: MDA-MB-436, MDA-MB-436, Conc. 3.70 uM; for inhibition at 11.11 µM: MDA-MB-436, MDA-MB-436, Conc. 11.11 uM; for inhibition at 33.33 µM: MDA-MB-436, MDA-MB-436, Conc. 33.33 uM; for inhibition at 100 µM: MDA-MB-436, MDA-MB-436, Conc. 100.00 uM
Procedure, shortened: (§2)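 Luminescent ATP read-out (CellTiter-Glo, 60 min at room temperature) quantified viability after a 72 h compound exposure at 37 °C, 5% CO2. Compounds, diluted from DMSO stocks into growth medium, were added to cells plated the previous day.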

[4] = tested on: CAPAN-1 (a BRCA-2-mutated pancreatic cancer cell line); test: Cell proliferation assay, three-day, CellTiter-Glo, CAPAN-1; type: cell-based; conditions: for inhibition at 0.00508 µM: CAPAN-1, Conc. 0.00508 uM; for inhibition at 0.0152 µM: CAPAN-1, Conc. 0.0152 uM; for inhibition at 0.0457 µM: CAPAN-1, Conc. 0.0457 uM; for inhibition at […]: CAPAN-1, Conc. 0.14 uM; for inhibition at 0.41 µM: CAPAN-1, Conc. 0.41 uM; for inhibition at 1.23 µM: CAPAN-1, Conc. 1.23 uM; for inhibition at 3.7 µM: CAPAN-1, Conc. 3.70 uM; for inhibition at 11.11 µM: CAPAN-1, Conc. 11.11 uM; for inhibition at 33.33 µM: CAPAN-1, Conc. 33.33 uM; for inhibition at 100 µM: CAPAN-1, Conc. 100.00 uM
Procedure, shortened: as §2

[5] = Homo sapiens, replicate 1, read-out: Inh % 1
[6] = Homo sapiens, replicate 2, read-out: Inh % 2

With `C[C@]1(c2nc3c(C(N)=O)cccc3[nH]2)CCCN1` [pc1, Veliparib, reference compound] the inhibition at 0.01 µM ([1]; read-out: 10 nM inhibition% PAPR-2) was 78.3%, the inhibition at 0.01 µM ([1]; read-out: PARP-2 Inhibition % (10 nM)) was 78.3% and the inhibition at 0.01 µM ([2]; read-out: 10 nM inhibition% PAPR-1) was 54.3%. It also gave an inhibition at 0.01 µM ([2]; read-out: PARP-1 Inhibition % (10 nM)) of 63.7%, an inhibition at 0.00508 µM ([3]; replicate 1, read-out: Inh % 1) of 0.064% and an inhibition at 0.00508 µM ([3]; replicate 2, read-out: Inh % 2) of -7.5%. For the same compound, the inhibition at 0.0152 µM ([3]; replicate 1, read-out: Inh % 1) was -2.6%, the inhibition at 0.0152 µM ([3]; replicate 2, read-out: Inh % 2) was -6.6% and the inhibition at 0.0457 µM ([3]; replicate 1, read-out: Inh % 1) was -7.5%. The inhibition at 0.0457 µM ([3]; replicate 2, read-out: Inh % 2) was -6.4%, the inhibition at 0.41 µM ([3]; replicate 1, read-out: Inh % 1) was -3.2% and the inhibition at 0.41 µM ([3]; replicate 2, read-out: Inh % 2) was -9.9%. The inhibition at 1.23 µM ([3]; replicate 1, read-out: Inh % 1) was -5.4%, the inhibition at 1.23 µM ([3]; replicate 2, read-out: Inh % 2) was -2.1% and the inhibition at 3.7 µM ([3]; replicate 1, read-out: Inh % 1) was -2.1%. It also gave an inhibition at 3.7 µM ([3]; replicate 2, read-out: Inh % 2) of 2.6%, an inhibition at 11.11 µM ([3]; replicate 1, read-out: Inh % 1) of 3.2% and an inhibition at 11.11 µM ([3]; replicate 2, read-out: Inh % 2) of 2.2%. It also gave an inhibition at 33.33 µM ([3]; replicate 1, read-out: Inh % 1) of 11.6%, an inhibition at 33.33 µM ([3]; replicate 2, read-out: Inh % 2) of 7.4% and an inhibition at 100 µM ([3]; replicate 1, read-out: Inh % 1) of 34.3%. For the same compound, the inhibition at 100 µM ([3]; replicate 2, read-out: Inh % 2) was 20.3%, the IC50 ([3]; MDA-MB-436, 72 h, CellTiter-Glo, read-out: MDA-MB-436 IC50) was over 100 µM and the “CAPAN-1 IC50 (μM)” value ([4]; 72 h, CellTiter-Glo) was “low potency”. The LogIC50 ([4]; CAPAN-1, curve-fit output, concentration axis Log (uM)) was 2.067, the IC50 ([4]; Homo sapiens, CAPAN-1, 72 h, CellTiter-Glo, read-out: CAPAN-1 IC50) was over 100 µM and the inhibition at 0.00508 µM [4, 5] was -10.6%. For the same compound, the inhibition at 0.00508 µM [4, 6] was 3.8%, the inhibition at 0.0152 µM [4, 5] was -2.1% and the inhibition at 0.0152 µM [4, 6] was -6.9%. The inhibition at 0.0457 µM [4, 5] was -0.346%, the inhibition at 0.0457 µM [4, 6] was 3% and the inhibition at […] [4, 5] was 9.5%. The inhibition at […] [4, 6] was 7.1%, the inhibition at 0.41 µM [4, 5] was 7.8% and the inhibition at 0.41 µM [4, 6] was -1.8%. The inhibition at 1.23 µM [4, 5] was -10.7%, the inhibition at 1.23 µM [4, 6] was -7.2% and the inhibition at 3.7 µM [4, 5] was -17.8%. It also gave an inhibition at 3.7 µM [4, 6] of -16.7%, an inhibition at 11.11 µM [4, 5] of 5% and an inhibition at 11.11 µM [4, 6] of 7.2%. For the same compound, the inhibition at 33.33 µM [4, 5] was 12.5%, the inhibition at 33.33 µM [4, 6] was 11.9% and the inhibition at 100 µM [4, 5] was 43.2%. The inhibition at 100 µM [4, 6] was 42.4%.
